# Experiments:
# [1] = Formaldehyde removing ability test (GC); details: 2.0% formaldehyde solution; for Area (mAU*min) 30 min: formaldehyde GC area after 30 min; for Area (mAU*min) 30 min / Area (mAU*min) 180 min: 3 molar equivalents, room temperature; for Area (mAU*min) 180 min: formaldehyde GC area after 180 min; for Area (mAU*min) Initial: formaldehyde GC area, initial state, 3 molar equivalents of compound
# [2] = Removal test of heavy metals of active ingredients (pig skin, ICP-MS): Cu; details: contaminated pig skin
# Protocol: (§1) (1) Preparation of Heavy Metal Contamination Sources and Pig Skin Samples
# (§2) A pig was slaughtered, flayed and the bristle was shaved. The pig skin was cut to prepare 5*5 cm size of skin samples respectively.
# (§3) The said skin samples were cleanly wiped with wet gauze, and then, added to 50 ml of methanol and extracted by shaking with ultrasonic for 60 min. 50 ml of methanol was further added and mixed. The pig skin samples were removed from the extracted solutions to prepare the test solutions.
# (§4) The test solutions were analyzed for heavy metal components using an inductively coupled plasma mass spectrometer (ICP-MS, Xseries™ 2, Thermo Fisher Scientific, UK).
# [3] = Removal test of heavy metals of active ingredients (pig skin, ICP-MS): Pb; details: contaminated pig skin
# Protocol: as §1, §2, §3, §4
# human skin = assay: Skin irritation test of active ingredient (patch method, CTFA guidelines); format: in vivo; parameters: key to Degree of irritation: 0–0.1 none, 0.11–0.3 weak, 0.31–0.5 moderate, ≥0.51 strong irritation; details: 20 people, patch 24 hours; for Test result(number of subject) (+): (+): Apparent reddening than periphery; for Test result(number of subject) (++): (++): More reddened and swollen than periphery; for Test result(number of subject) (±): (±): slightly reddish than the periphery; for Test result(number of subject) (−): (−): No erythema or particularly no symptoms
# Protocol: A total of 20 people (10 men and 10 women in their 20 s and 30 s) were tested for skin irritation using the patch method according to the guidelines of CTFA (The Cosmetic, Toiletry & Fragrance Association, Inc. Washington, D.C.).
# A filter paper disk was placed in an 8 mm diameter, 10 panels of pin chamber.
# After 24 hours, the pin chamber was removed, and skin conditions were visually observed.
# [Criteria for Skin Irritation]
# (−): No erythema or particularly no symptoms; (±): slightly reddish than the periphery; (+): Apparent reddening than periphery; (++): More reddened and swollen than periphery.
# [Grade for Skin Irritation]
# Degree of irritation 0-0.1: Grade I (unstimulated);
# Degree of irritation 0.11-0.3: Grade II (weakly stimulated);
# Degree of irritation 0.31-0.5: Grade III (moderately stimulated);
# Degree of irritation 0.51 or more: Grade IV (strongly stimulated)
# [4] = Removal test of heavy metals of active ingredients (pig skin, ICP-MS): Cd; details: contaminated pig skin
# Protocol: as §1, §2, §3, §4
SMILES,Area (mAU*min) 30 min [1] [mAU*min],Area (mAU*min) 180 min [1] [mAU*min],Area (mAU*min) Initial [1] [mAU*min],Removal of Heavy metals Cu (%) ([2]; 0.1 wt % aqueous solution),Removal of Heavy metals Cu (%) ([2]; 0.5 wt % aqueous solution),Removal of Heavy metals Cu (%) ([2]; 1.0 wt % aqueous solution),Removal of Heavy metals Pb (%) ([3]; 0.1 wt % aqueous solution),Removal of Heavy metals Pb (%) ([3]; 0.5 wt % aqueous solution),Removal of Heavy metals Pb (%) ([3]; 1.0 wt % aqueous solution),Degree of irritation (human skin; 0.1 wt %),Grade (human skin; 0.1 wt %),Test result(number of subject) (+) (human skin; 0.1 wt %),Test result(number of subject) (++) (human skin; 0.1 wt %),Test result(number of subject) (±) (human skin; 0.1 wt %),Test result(number of subject) (−) (human skin; 0.1 wt %),Degree of irritation (human skin; 0.5 wt %),Grade (human skin; 0.5 wt %),Test result(number of subject) (+) (human skin; 0.5 wt %),Test result(number of subject) (++) (human skin; 0.5 wt %),Test result(number of subject) (±) (human skin; 0.5 wt %),also measured
"O=C(O)CN1CCN(CC(=O)O)CCN(CC(=O)O)CCN(CC(=O)O)CC1 [Embodiment 5, 2,2′,2″,2′″-(1,4,7,10-tetraazacyclododecane-1,4,7,10-tetrayl)tetraacetic acid]",0.179,0,0.305,94.6,96.8,97.2,92.4,94.7,95.1,0,I (Degree of irritation 0-0.1: Grade I (unstimulated)),0,0,0,20,0,I (Degree of irritation 0-0.1: Grade I (unstimulated)),0,0,0,Test result(number of subject) (−) (human skin; 0.5 wt %): 20; Degree of irritation (human skin; 1.0 wt %): 0.05; Grade (human skin; 1.0 wt %): I (Degree of irritation 0-0.1: Grade I (unstimulated)); Test result(number of subject) (+) (human skin; 1.0 wt %): 0; Test result(number of subject) (++) (human skin; 1.0 wt %): 0; Test result(number of subject) (±) (human skin; 1.0 wt %): 1; Test result(number of subject) (−) (human skin; 1.0 wt %): 19; Removal of Heavy metals Cd (%) ([4]; 0.1 wt % aqueous solution): 90.4%; Removal of Heavy metals Cd (%) ([4]; 0.5 wt % aqueous solution): 93.6%; Removal of Heavy metals Cd (%) ([4]; 1.0 wt % aqueous solution): 93.7%
"O=C(O)c1ccc(N2CCN(c3ccc(C(=O)O)cc3)CCN(c3ccc(C(=O)O)cc3)CCN(c3ccc(C(=O)O)cc3)CC2)cc1 [Embodiment 6, 4,4′,4″,4′″-(1,4,7,10-tetraazacyclododecane-1,4,7,10-tetrayl)tetrabenzoic acid]",0.183,0,0.305,94.1,96.3,97.0,90.2,92.8,93.2,0,I (Degree of irritation 0-0.1: Grade I (unstimulated)),0,0,0,20,0,I (Degree of irritation 0-0.1: Grade I (unstimulated)),0,0,0,Test result(number of subject) (−) (human skin; 0.5 wt %): 20; Degree of irritation (human skin; 1.0 wt %): 0.05; Grade (human skin; 1.0 wt %): I (Degree of irritation 0-0.1: Grade I (unstimulated)); Test result(number of subject) (+) (human skin; 1.0 wt %): 0; Test result(number of subject) (++) (human skin; 1.0 wt %): 0; Test result(number of subject) (±) (human skin; 1.0 wt %): 1; Test result(number of subject) (−) (human skin; 1.0 wt %): 19; Removal of Heavy metals Cd (%) ([4]; 0.1 wt % aqueous solution): 89.2%; Removal of Heavy metals Cd (%) ([4]; 0.5 wt % aqueous solution): 90.9%; Removal of Heavy metals Cd (%) ([4]; 1.0 wt % aqueous solution): 91.6%
"O=C(O)c1cncc(N2CCN(c3cncc(C(=O)O)c3)CCN(c3cncc(C(=O)O)c3)CCN(c3cncc(C(=O)O)c3)CC2)c1 [Embodiment 7, 5,5′,5″,5′″-(1,4,7,10-tetraazacyclododecane-1,4,7,10-tetrayl)tetranicotinic acid]",0.181,0,0.305,93.8,95.1,96.0,90.8,93.1,93.6,0,I (Degree of irritation 0-0.1: Grade I (unstimulated)),0,0,0,20,0,I (Degree of irritation 0-0.1: Grade I (unstimulated)),0,0,0,Test result(number of subject) (−) (human skin; 0.5 wt %): 20; Degree of irritation (human skin; 1.0 wt %): 0; Grade (human skin; 1.0 wt %): I (Degree of irritation 0-0.1: Grade I (unstimulated)); Test result(number of subject) (+) (human skin; 1.0 wt %): 0; Test result(number of subject) (++) (human skin; 1.0 wt %): 0; Test result(number of subject) (±) (human skin; 1.0 wt %): 0; Test result(number of subject) (−) (human skin; 1.0 wt %): 20; Removal of Heavy metals Cd (%) ([4]; 0.1 wt % aqueous solution): 87.9%; Removal of Heavy metals Cd (%) ([4]; 0.5 wt % aqueous solution): 89.4%; Removal of Heavy metals Cd (%) ([4]; 1.0 wt % aqueous solution): 90.7%
"O=C(O)c1ccc(N2CCN(c3ccc(C(=O)O)o3)CCN(c3ccc(C(=O)O)o3)CCN(c3ccc(C(=O)O)o3)CC2)o1 [Embodiment 8, 5,5′,5″,5′″-(1,4,7,10-tetraazacyclododecane-1,4,7,10-tetrayl)tetrakis(furan-2-carboxylic acid)]",0.168,0,0.305,94.3,96.8,97.2,91.4,93.4,94.0,0,I (Degree of irritation 0-0.1: Grade I (unstimulated)),0,0,0,20,0,I (Degree of irritation 0-0.1: Grade I (unstimulated)),0,0,0,Test result(number of subject) (−) (human skin; 0.5 wt %): 20; Degree of irritation (human skin; 1.0 wt %): 0.10; Grade (human skin; 1.0 wt %): I (Degree of irritation 0-0.1: Grade I (unstimulated)); Test result(number of subject) (+) (human skin; 1.0 wt %): 0; Test result(number of subject) (++) (human skin; 1.0 wt %): 0; Test result(number of subject) (±) (human skin; 1.0 wt %): 2; Test result(number of subject) (−) (human skin; 1.0 wt %): 18; Removal of Heavy metals Cd (%) ([4]; 0.1 wt % aqueous solution): 90.4%; Removal of Heavy metals Cd (%) ([4]; 0.5 wt % aqueous solution): 91.3%; Removal of Heavy metals Cd (%) ([4]; 1.0 wt % aqueous solution): 93.4%
"O=C(O)CN1CCCN(CC(=O)O)CCN(CC(=O)O)CCCN(CC(=O)O)CC1 [Embodiment 9, 2,2′,2″,2′″-(1,4,8,11-tetraazacyclotetradecane-1,4,8,11-tetrayl)tetraacetic acid]",0.182,0,0.305,94.3,96.9,97.3,88.9,91.0,91.4,0,I (Degree of irritation 0-0.1: Grade I (unstimulated)),0,0,0,20,0,I (Degree of irritation 0-0.1: Grade I (unstimulated)),0,0,0,Test result(number of subject) (−) (human skin; 0.5 wt %): 20; Degree of irritation (human skin; 1.0 wt %): 0.10; Grade (human skin; 1.0 wt %): I (Degree of irritation 0-0.1: Grade I (unstimulated)); Test result(number of subject) (+) (human skin; 1.0 wt %): 0; Test result(number of subject) (++) (human skin; 1.0 wt %): 0; Test result(number of subject) (±) (human skin; 1.0 wt %): 2; Test result(number of subject) (−) (human skin; 1.0 wt %): 18; Removal of Heavy metals Cd (%) ([4]; 0.1 wt % aqueous solution): 89.1%; Removal of Heavy metals Cd (%) ([4]; 0.5 wt % aqueous solution): 91.3%; Removal of Heavy metals Cd (%) ([4]; 1.0 wt % aqueous solution): 91.9%
